Experimental data reported in patent US6683073B1, “Pyrimidine linked pyrrolo[2,1-c][1,4]benzodiazepines as potential antitumour agents” (Council of Scientific and Industrial Research, priority 2003, dated 2004).

What was measured:
[1] = system: sixty human tumour cells derived from nine cancer types; assay: NCI in vitro cytotoxicity screen, 48 h drug exposure, sulforhodamine B (SRB) protein assay; type: cell-based; details: for Log10 GI50 mean graph midpoint (MG_MID): concentration causing 50% cell growth inhibition; for Log10 GI50 mean graph midpoint (MG_MID) / Log10 TGI mean graph midpoint (MG_MID): mean over human tumour cell lines, 48 h exposure; for Log10 TGI mean graph midpoint (MG_MID): total cell growth inhibition (0% growth)
Procedure: (§1) Biological Activity: In vitro biological activity studies were carried out at National Cancer Institute (USA).
(§2) Cytotoxicity: Compounds VIa and VIb were evaluated in vitro against sixty human tumour cells derived from nine cancer types (leukemia, non-small-cell lung, colon, CNS, melanoma, ovarian, prostate, and breast cancer). For each compound, dose response curves for each cell line were measured at a minimum of five concentrations at 10 fold dilutions. A protocol of 48 h continuous drug exposure was used and a sulforhodamine B (SRB) protein assay was used to estimate cell viability or growth. The concentration causing 50% cell growth inhibition (GI50), total cell growth inhibition (TGI 0% growth) and 50% cell death (LC50, −50% growth) compared with the control was calculated.

Leukaemia cell lines = assay: NCI in vitro cytotoxicity screen (SRB), leukaemia panel; type: cell-based, human; details: average of six to eight different cancer cell lines
Procedure: as §1, §2
(§3) Each cancer type represents the average of six to eight different cancer cell lines.

[2] = system: non-small-cell lung cancer cell lines; assay: NCI in vitro cytotoxicity screen (SRB), non-small-cell lung panel; type: cell-based, human; details: average of six to eight different cancer cell lines
Procedure: as §1, §2, §3

Colon cancer cell lines = assay: NCI in vitro cytotoxicity screen (SRB), colon panel; type: cell-based, human; details: average of six to eight different cancer cell lines
Procedure: as §1, §2, §3

CNS cancer cell lines = assay: NCI in vitro cytotoxicity screen (SRB), CNS panel; type: cell-based, human; details: average of six to eight different cancer cell lines
Procedure: as §1, §2, §3

Melanoma cell lines = assay: NCI in vitro cytotoxicity screen (SRB), melanoma panel; type: cell-based, human; details: average of six to eight different cancer cell lines
Procedure: as §1, §2, §3

[3] = system: Ovarian cancer cell lines; assay: NCI in vitro cytotoxicity screen (SRB), ovarian panel; type: cell-based, human; details: average of six to eight different cancer cell lines
Procedure: as §1, §2, §3

Renal cancer cell lines = assay: NCI in vitro cytotoxicity screen (SRB), renal panel; type: cell-based, human; details: average of six to eight different cancer cell lines
Procedure: as §1, §2, §3

[4] = system: Prostate cancer cell lines; assay: NCI in vitro cytotoxicity screen (SRB), prostate panel; type: cell-based, human; details: average of six to eight different cancer cell lines
Procedure: as §1, §2, §3

Breast cancer cell lines = assay: NCI in vitro cytotoxicity screen (SRB), breast panel; type: cell-based, human; details: average of six to eight different cancer cell lines
Procedure: as §1, §2, §3

SMILES | Log10 GI50 mean graph midpoint (MG_MID) [1] | Log10 TGI mean graph midpoint (MG_MID) [1] | in vitro cytotoxicity, log10 value (quantity not given) (Leukaemia cell lines) | in vitro cytotoxicity, log10 value (quantity not given) [2] | in vitro cytotoxicity, log10 value (quantity not given) (Colon cancer cell lines) | in vitro cytotoxicity, log10 value (quantity not given) (CNS cancer cell lines) | in vitro cytotoxicity, log10 value (quantity not given) (Melanoma cell lines) | in vitro cytotoxicity, log10 value (quantity not given) [3] | in vitro cytotoxicity, log10 value (quantity not given) (Renal cancer cell lines) | in vitro cytotoxicity, log10 value (quantity not given) [4] | in vitro cytotoxicity, log10 value (quantity not given) (Breast cancer cell lines) | cytotoxic / anticancer activity, in words ([1]; human tumour cell lines)
COc1cc2c(cc1OCCCOc1cc(-c3ccc(F)cc3)nc(C)n1)N=C[C@@H]1CCCN1C2=O [VIa, 7-methoxy-8-[6′-(4″-fluorophenyl)-2′-methylpyrimidine-4′-yloxy]propoxy-(11aS)-1,2,3,11a-tetrahydro-5H-pyrrolo[2,1,c][1,4]benzodiazepin-5-one] | −4.73 | −4.34 | −4.03 | −4.07 | −4.12 | −4.10 | −4.14 | −4.05 | −4.18 | −4.00 | −4.09 | 
COc1cc2c(cc1OCCCCOc1cc(-c3ccc(F)cc3)nc(C)n1)N=C[C@@H]1CCCN1C2=O [VIb, 7-methoxy-8-[6′-(4″-fluorophenyl)-2′-methylpyrimidine-4′-yloxy]butoxy-(11aS)-1,2,3,11a-tetrahydro-5H-pyrrolo[2,1,c][1,4]benzodiazepin-5-one] | −6.41 | −5.57 | −5.41 | −4.61 | −4.67 | −4.40 | −5.22 | −4.33 | −4.39 | −4.45 | −4.52 | slightly higher activity
